Results reported in patent US20220143060A1, “METHOD FOR TREATING INFECTIOUS DISEASES BY TARGETING NK CELL IMMUNE CHECKPOINT” (priority 2019, published 2022).

Experiments:
[1] = tested on: Qa-1; assay: Qa-1 mRNA expression of different cell components in liver tissue after siRNA treatment; assay type: in vivo, C/O-Tg mice; details: tail vein injection, two weeks of treatment, vs control siRNA (FIG. 8B)
Text: On the other hand, it was investigated whether suppression of the expression of immune checkpoint molecules can promote the elimination of HCV.

[2] = tested on: HCV (J399EM); assay: HCV copy number in serum/peripheral blood and liver tissue by qPCR in HCV-infected C/O-Tg mice; assay type: in vivo; details: two weeks of treatment, vs control (FIG. 7B, 8C)
Protocol: This mouse model of HCV infection was first reproduced and confirmed. HCV (J399EM, 1 mL, TCID50=2×10^7) was used for tail vein infusion in C/O-Tg mice and wild-type littermate control mice. […] The above results are consistent with the observation in patients infected with HCV (Fahey S, Dempsey E, Long A. The role of chemokines in acute and chronic hepatitis C infection. Cellular and Molecular Immunology 11, 25 (2014)).
Since CD8+ T cells are generally thought to play an important role in viral infection and clearance, the expression profile of CD8+T immune checkpoint molecules during HCV infection was first tested. […] Based on this, it was tested whether targeting T cell immune checkpoint molecules can inhibit the chronic infection process.
In order to further investigate the therapeutic effect of NKG2A blockade on chronic HCV infection, mice were administered with NKG2A blocking antibodies two weeks after HCV infection. Up-regulation of NKG2A expression has been observed at this stage (FIG. 3C) and administration was lasted for two weeks (FIG. 6A).

[3] = tested on: liver NK cells; assay: in vitro NK function assay: liver NK cells of treated mice co-cultured with target cells Yac-1, flow cytometry (CD107a, granzyme B, IFN-γ); assay type: in vivo, C/O-Tg mice; details: two weeks of treatment with Qa-1 siRNA, vs control siRNA (FIG. 8D)

For “cholesterol-conjugated siRNA against Qa-1: cholesterol-conjugated siRNA against Qa-1, sequence GAAGAGGAGGAGACACAUA, synthesized by GenePharma (cholesterol-conjugated, position not given here)”, the “Qa-1 expression (mRNA) in liver cell components” value [1] was “selectively down-regulated Qa-1 in hepatocytes”, the “HCV replication (copy numbers of virus in serum and liver tissues)” value [2] was “inhibited HCV replication” and the “depletion process of NK cells (CD107a and IFN-γ)” value [3] was “reversed”.
